Measured values from patent US7396837B2, “Antitumoral analogs of lamellarins” (Pharma Mar, S.A.U., priority 2002, dated 2008).
Read-outs that look alike come from different tables or passages of the source.

Legend:
Format in all cases: cell-based
[1] = tested on: LoVo; experiment: SRB colorimetric cell growth inhibition assay, LoVo; details: Homo sapiens, LoVo; for GI50: GI=growth inhibition, read-out: GI50 LOVO; for CC50: cell killing (cytotoxic effect); for IC (TGI): total growth inhibition (cytostatic effect), read-out: TGI LOVO
How it was run: (§1)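 Read-out: sulforhodamine B colorimetry of surviving cell mass after continued exposure of human tumour lines to sample. Values are means ± SD of three wells, expressed as GI, TGI or LC.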

[2] = tested on: LoVo-Dox; experiment: SRB colorimetric cell growth inhibition assay, LoVo-Dox (MDR); details: Homo sapiens; for GI50: GI=growth inhibition, read-out: GI50 LOVO-DOX; for CC50: cell killing (cytotoxic effect); for IC (TGI): total growth inhibition (cytostatic effect), read-out: TGI LOVO-DOX
How it was run: as §1

[3] = tested on: HT-29; experiment: SRB colorimetric cell growth inhibition assay, HT-29; details: Homo sapiens; for GI50: GI=growth inhibition, read-out: GI50 HT-29; for CC50: cell killing (cytotoxic effect); for IC (TGI): total growth inhibition (cytostatic effect), read-out: TGI HT-29
How it was run: as §1

[4] = tested on: IGROV-ET; experiment: SRB colorimetric cell growth inhibition assay, IGROV-ET (ET-743 resistant); details: Homo sapiens; for GI50: GI=growth inhibition, read-out: GI50 IGROV-ET; for CC50: LC=cell killing (cytotoxic effect); for IC (TGI): TGI=total growth inhibition (cytostatic effect), read-out: TGI IGROV-ET
How it was run: as §1

[5] = tested on: SKOV-3; experiment: SRB colorimetric cell growth inhibition assay, SKOV-3; details: Homo sapiens
How it was run: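 Growth and viability quantified by sulforhodamine B staining in 96-well microplates. Triplicate wells give mean ± SD; derived endpoints are GI, TGI (cytostatic) and LC (cytotoxic).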

[6] = tested on: SK-MEL-28; experiment: SRB colorimetric cell growth inhibition assay, SK-MEL-28; details: Homo sapiens; for GI50: GI=growth inhibition, read-out: GI50 MEL-28; for CC50: LC=cell killing (cytotoxic effect); for IC (TGI): TGI=total growth inhibition (cytostatic effect), read-out: TGI MEL-28
How it was run: as §1

[7] = SRB colorimetric cell growth inhibition assay, H-MEC-1; details: human
Source text: (§2) Inhibition of Cell Growth by Colorimetric Assay.
(§3) A colorimetric type of assay, using sulforhodamine B (SRB) reaction has been adapted for a quantitative measurement of cell growth and viability (following the technique described by P. A. Skehan, et al., J. Natl. Cancer Inst. 1990, 82, 1107-1112).
(§4) This form of assay employs 96 well cell culture microplates of 9 mm diameter (T. Mosmann et al., J. of Immunological Methods 1983, 65, 55-63; G. T. Faircloth et al., J. of Tissue and Culture Methods 1988, 11, 201-205).
(§5) Most of the cell lines are obtained from American Type Culture Collection (ATCC) derived from different human cancer types.
(§6) The values for mean +/− SD of data from triplicate wells are calculated. Some parameters for cellular responses can be calculated: GI=growth inhibition, TGI=total growth inhibition (cytostatic effect) and LC=cell killing (cytotoxic effect).

[8] = tested on: H-MEC-1; experiment: as above; details: Homo sapiens, HMEC-1, H-MEC-1; for GI50: GI=growth inhibition; for IC (TGI): TGI=total growth inhibition (cytostatic effect), read-out: TGI H-MEC-1
Source text: as §2, §3, §4, §5, §6

[9] = tested on: K-562; experiment: SRB colorimetric cell growth inhibition assay, K-562; details: Homo sapiens; for GI50: GI=growth inhibition, read-out: GI50 K-562; for CC50: cell killing (cytotoxic effect); for IC (TGI): total growth inhibition (cytostatic effect), read-out: TGI K-562
How it was run: as §1

[10] = tested on: SK-BR-3; experiment: SRB colorimetric cell growth inhibition assay, SK-BR-3; details: Homo sapiens, SK-BR-3, SK-BR-3
How it was run: as §1

[11] = tested on: PANC-1; experiment: SRB colorimetric cell growth inhibition assay, PANC-1; details: Homo sapiens; for GI50: GI=growth inhibition, read-out: GI50 PANC-1; for CC50: cell killing (cytotoxic effect); for IC (TGI): total growth inhibition (cytostatic effect), read-out: TGI PANC-1
How it was run: as §1

[12] = tested on: IGROV; experiment: SRB colorimetric cell growth inhibition assay, IGROV; details: Homo sapiens, IGROV; for GI50: GI=growth inhibition, read-out: GI50 IGROV; for CC50: LC=cell killing (cytotoxic effect); for IC (TGI): TGI=total growth inhibition (cytostatic effect), read-out: TGI IGROV
How it was run: as §1

[13] = tested on: DU-145; experiment: SRB colorimetric cell growth inhibition assay, DU-145; details: Homo sapiens; for GI50: GI=growth inhibition, read-out: GI50 DU-145; for CC50: LC=cell killing (cytotoxic effect); for IC (TGI): TGI=total growth inhibition (cytostatic effect), read-out: TGI DU-145
How it was run: as §1

[14] = tested on: A-549; experiment: SRB colorimetric cell growth inhibition assay, A-549; details: Homo sapiens; for GI50: GI=growth inhibition, read-out: GI50 A-549; for CC50: cell killing (cytotoxic effect); for IC (TGI): total growth inhibition (cytostatic effect), read-out: TGI A-549
How it was run: as §1

[15] = tested on: LNCaP; experiment: SRB colorimetric cell growth inhibition assay, LNCaP; details: Homo sapiens, LNCaP
How it was run: as §1

Row | Structure (SMILES) | GI50 [1] [µM] | IC (TGI) [1] [µM] | GI50 ([2]; LOVO-DOX) [µM] | IC (TGI) ([2]; LOVO-DOX) [µM] | GI50 ([3]; HT-29, HT-29) [µM] | IC (TGI) ([3]; HT-29, HT-29) [µM] | GI50 ([4]; IGROV-ET) [µM] | IC (TGI) ([4]; IGROV-ET) [µM] | GI50 ([6]; SK-MEL-28, MEL-28) [µM] | IC (TGI) ([6]; SK-MEL-28, MEL-28) [µM] | GI50 [8] [µM] | IC (TGI) [8] [µM] | GI50 ([9]; K562, K-562) [µM] | IC (TGI) ([9]; K562, K-562) [µM] | GI50 ([11]; PANC-1, PANC-1) [µM] | IC (TGI) ([11]; PANC-1, PANC-1) [µM] | GI50 [12] [µM] | IC (TGI) [12] [µM] | GI50 ([13]; DU-145, DU-145) [µM] | IC (TGI) ([13]; DU-145, DU-145) [µM] | other results
1 | COc1cc(-c2c3n(c4c(=O)oc5cc(OC(=O)[C@H](C)N)c(OC)cc5c24)CCc2c-3cc(OC)c(OC)c2OC(=O)[C@H](C)N)ccc1OC(=O)[C@H](C)N [Compound 96] | 2.28 | 9.2 | 0.563 | 2.07 | 9.2 | 9.2 | 2.69 | 5.6 | 2.14 | 4.43 | 0.381 | 9.2 | 1.63 | 4.43 | 1.68 | 5.65 | 1.2 | 3.01 | 4.26 | 9.2 | CC50 ([1]; read-out: LC50 LOVO): 9.2 µM; CC50 ([2]; LOVO-DOX, read-out: LC50 LOVO-DOX): 9.2 µM; CC50 ([3]; HT-29, HT-29, read-out: LC50 HT-29): 9.2 µM; CC50 ([4]; IGROV-ET, read-out: LC50 IGROV-ET): 9.2 µM; GI50 ([5]; SK-OV-3, SKOV-3, GI=growth inhibition, read-out: GI50 SKOV-3): 4.2 µM; CC50 ([5]; SK-OV-3, SKOV-3, LC=cell killing (cytotoxic effect), read-out: LC50 SKOV-3): 9.2 µM; IC (TGI) ([5]; SK-OV-3, SKOV-3, TGI=total growth inhibition (cytostatic effect), read-out: TGI SKOV-3): 9.2 µM; CC50 ([6]; SK-MEL-28, MEL-28, read-out: LC50 MEL-28): 9.18 µM; CC50 ([7]; H-MEC-1 cells, H-MEC-1, LC=cell killing (cytotoxic effect), read-out: LC50 H-MEC-1): 9.2 µM; CC50 ([9]; K562, K-562, read-out: LC50 K-562): 9.2 µM; GI50 ([10]; GI=growth inhibition, read-out: GI50 SK-BR-3): 0.417 µM; CC50 ([10]; LC=cell killing (cytotoxic effect), read-out: LC50 SK-BR-3): 5.47 µM; IC (TGI) ([10]; TGI=total growth inhibition (cytostatic effect), read-out: TGI SK-BR-3): 1.86 µM; CC50 ([11]; PANC-1, PANC-1, read-out: LC50 PANC-1): 9.2 µM; CC50 ([12]; read-out: LC50 IGROV): 7.54 µM; CC50 ([13]; DU-145, DU-145, read-out: LC50 DU-145): 9.2 µM; GI50 ([14]; A549, A-549): 4.97 µM; CC50 ([14]; A549, A-549, read-out: LC50 A-549): 9.2 µM; IC (TGI) ([14]; A549, A-549): 9.2 µM
2 | COc1cc(-c2c3n(c4c(=O)oc5cc(OC(=O)[C@@H](N)C(C)C)c(OC)cc5c24)CCc2c-3cc(OC)c(OC)c2OC(=O)[C@@H](N)C(C)C)ccc1OC(=O)[C@@H](N)C(C)C [Compound 128] | 0.854 | 1.92 | 0.403 | 1.49 | 1.95 | 3.54 | 0.689 | 2.26 | 1.57 | 3.03 | 1.53 | 3.16 | 1.11 | 2.98 | 0.888 | 2.31 | 0.639 | 1.98 | 1.33 | 2.48 | CC50 ([1]; read-out: LC50 LOVO, LOVO): 4.3 µM; CC50 ([2]; read-out: LC50 LOVO-DOX, LOVO-DOX): 4.66 µM; CC50 ([3]; HT-29, read-out: LC50 HT-29, HT-29): 6.44 µM; CC50 ([4]; read-out: LC50 IGROV-ET, IGROV-ET): 7.59 µM; CC50 ([6]; SK-MEL-28, read-out: LC50 MEL-28, MEL-28): 5.86 µM; CC50 ([7]; LC50 H-MEC-1): 6.53 µM; CC50 ([9]; K562, read-out: LC50 K-562, K-562): 8.01 µM; GI50 ([15]; LN-caP, GI=growth inhibition, read-out: GI50 LN-caP): 1.26 µM; IC (TGI) ([15]; LN-caP, TGI=total growth inhibition (cytostatic effect), read-out: TGI LN-caP): 2.69 µM; CC50 ([15]; read-out: LC50 LN-caP, LN-caP, LC=cell killing (cytotoxic effect)): 5.71 µM; CC50 ([11]; PANC-1, read-out: LC50 PANC-1, PANC-1): 5.99 µM; CC50 ([12]; read-out: LC50 IGROV, IGROV): 5.7 µM; CC50 ([13]; DU-145, read-out: LC50 DU-145, DU-145): 4.62 µM; GI50 ([14]; A549, A-549): 1.61 µM; IC (TGI) ([14]; A549, A-549): 3.23 µM; CC50 ([14]; A549, read-out: LC50 A-549, A-549): 6.45 µM
